Assay results reported in patent US20230111310A1, “CARBOXYLIC ACID DERIVATIVE-SUBSTITUTED IMINO ARYL COMPOUND, PREPARATION METHOD THEREFOR, HERBICIDAL COMPOSITION AND USE THEREOF” (Qingdao Kingagroot Chemical Compound Co., Ltd., priority 2020, published 2023).

Columns and labels:
Test in all cases: Weeding effect in post-emergence stage
Assay type in all cases: in vivo
Echinochloa crusgalli = conditions: for Weeding effect in post-emergence stage, Echinochloa crusgalli: level of fresh weight growth control rate; for Weeding effect in post-emergence stage, Echinochloa crusgalli (level): fresh weight control rate level
Outline: (§1)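 Post-emergence spray tower; 2-3 leaf plants (2 wk after sowing, soil pots, greenhouse). Formulation: acetone, Tween 80, methyl oleate EC 1.5 liter/ha as synergist, water. Rates 500–7.5 g/ha. Growth control rate read at 3 wk; n=3, averaged.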

Eleusine indica = conditions: for Weeding effect in post-emergence stage, Eleusine indica: level of fresh weight growth control rate; for Weeding effect in post-emergence stage, Eleusine indica (level): fresh weight control rate level
Outline: as §1

Setaria viridis = conditions: for Weeding effect in post-emergence stage, Setaria viridis: level of fresh weight growth control rate; for Weeding effect in post-emergence stage, Setaria viridis (level): fresh weight control rate level
Outline: as §1

Alopecurus japonicus = conditions: for Weeding effect in post-emergence stage, Alopecurus japonicus: level of fresh weight growth control rate; for Weeding effect in post-emergence stage, Alopecurus japonicus (level): fresh weight control rate level
Outline: as §1

Digitaria sanguinalis = conditions: for Weeding effect in post-emergence stage, Digitaria sanguinalis: level of fresh weight growth control rate; for Weeding effect in post-emergence stage, Digitaria sanguinalis (level): fresh weight control rate level
Outline: as §1

Abutilon theophrasti = conditions: for Weeding effect in post-emergence stage, Abutilon theophrasti: level of fresh weight growth control rate; for Weeding effect in post-emergence stage, Abutilon theophrasti (level): fresh weight control rate level
Outline: as §1

## COC(=O)C(O/N=C/c1cc(-n2c(=O)cc(C(F)(F)F)n(C)c2=O)c(F)cc1Cl)C(C)C (stereo not drawn) [Compound 318]
Echinochloa crusgalli; Dose 15 g/ha
  Weeding effect in post-emergence stage, Echinochloa crusgalli: 5 (Level 5: growth control rate is above 85%)
Eleusine indica; Dose 15 g/ha
  Weeding effect in post-emergence stage, Eleusine indica: 5 (Level 5: growth control rate is above 85%)
Setaria viridis; Dose 15 g/ha
  Weeding effect in post-emergence stage, Setaria viridis: 5 (Level 5: growth control rate is above 85%)
Alopecurus japonicus; Dose 15 g/ha
  Weeding effect in post-emergence stage, Alopecurus japonicus: 5 (Level 5: growth control rate is above 85%)
Digitaria sanguinalis; Dose 15 g/ha
  Weeding effect in post-emergence stage, Digitaria sanguinalis: 5 (Level 5: growth control rate is above 85%)
Abutilon theophrasti; Dose 15 g/ha
  Weeding effect in post-emergence stage, Abutilon theophrasti: 5 (Level 5: growth control rate is above 85%)

## CCOC(=O)C(O/N=C/c1cc(-n2c(=O)cc(C(F)(F)F)n(C)c2=O)c(F)cc1Cl)C1CC1 (stereo not drawn) [Compound 319]
Echinochloa crusgalli; Dose 30 g/ha
  Weeding effect in post-emergence stage, Echinochloa crusgalli: 5 (Level 5: growth control rate is above 85%)
Eleusine indica; Dose 30 g/ha
  Weeding effect in post-emergence stage, Eleusine indica: 5 (Level 5: growth control rate is above 85%)
Setaria viridis; Dose 30 g/ha
  Weeding effect in post-emergence stage, Setaria viridis: 5 (Level 5: growth control rate is above 85%)
Alopecurus japonicus; Dose 30 g/ha
  Weeding effect in post-emergence stage, Alopecurus japonicus: 5 (Level 5: growth control rate is above 85%)
Digitaria sanguinalis; Dose 30 g/ha
  Weeding effect in post-emergence stage, Digitaria sanguinalis: 5 (Level 5: growth control rate is above 85%)
Abutilon theophrasti; Dose 30 g/ha
  Weeding effect in post-emergence stage, Abutilon theophrasti: 5 (Level 5: growth control rate is above 85%)

## COC(=O)C(OC)O/N=C/c1cc(-n2c(=O)cc(C(F)(F)F)n(C)c2=O)c(F)cc1Cl (stereo not drawn) [Compound 321]
Echinochloa crusgalli; Dose 120 g/ha
  Weeding effect in post-emergence stage, Echinochloa crusgalli: 5 (Level 5: growth control rate is above 85%)
Eleusine indica; Dose 120 g/ha
  Weeding effect in post-emergence stage, Eleusine indica: 5 (Level 5: growth control rate is above 85%)
Setaria viridis; Dose 120 g/ha
  Weeding effect in post-emergence stage, Setaria viridis: 5 (Level 5: growth control rate is above 85%)
Alopecurus japonicus; Dose 120 g/ha
  Weeding effect in post-emergence stage, Alopecurus japonicus: 5 (Level 5: growth control rate is above 85%)
Digitaria sanguinalis; Dose 120 g/ha
  Weeding effect in post-emergence stage, Digitaria sanguinalis: 5 (Level 5: growth control rate is above 85%)
Abutilon theophrasti; Dose 120 g/ha
  Weeding effect in post-emergence stage, Abutilon theophrasti: 5 (Level 5: growth control rate is above 85%)

## CCOC(=O)C(OC)O/N=C/c1cc(-n2c(=O)cc(C(F)(F)F)n(C)c2=O)c(F)cc1Cl (stereo not drawn) [Compound 322]
Echinochloa crusgalli; Dose 120 g/ha
  Weeding effect in post-emergence stage, Echinochloa crusgalli: 5 (Level 5: growth control rate is above 85%)
Eleusine indica; Dose 120 g/ha
  Weeding effect in post-emergence stage, Eleusine indica: 5 (Level 5: growth control rate is above 85%)
Setaria viridis; Dose 120 g/ha
  Weeding effect in post-emergence stage, Setaria viridis: 5 (Level 5: growth control rate is above 85%)
Alopecurus japonicus; Dose 120 g/ha
  Weeding effect in post-emergence stage, Alopecurus japonicus: 5 (Level 5: growth control rate is above 85%)
Digitaria sanguinalis; Dose 120 g/ha
  Weeding effect in post-emergence stage, Digitaria sanguinalis: 5 (Level 5: growth control rate is above 85%)
Abutilon theophrasti; Dose 120 g/ha
  Weeding effect in post-emergence stage, Abutilon theophrasti: 5 (Level 5: growth control rate is above 85%)

## CCOC(O/N=C/c1cc(-n2c(=O)cc(C(F)(F)F)n(C)c2=O)c(F)cc1Cl)C(=O)OC (stereo not drawn) [Compound 331]
Echinochloa crusgalli; Dose 15 g/ha
  Weeding effect in post-emergence stage, Echinochloa crusgalli: 5 (Level 5: growth control rate is above 85%)
Eleusine indica; Dose 15 g/ha
  Weeding effect in post-emergence stage, Eleusine indica: 5 (Level 5: growth control rate is above 85%)
Setaria viridis; Dose 15 g/ha
  Weeding effect in post-emergence stage, Setaria viridis: 5 (Level 5: growth control rate is above 85%)
Alopecurus japonicus; Dose 15 g/ha
  Weeding effect in post-emergence stage, Alopecurus japonicus: 5 (Level 5: growth control rate is above 85%)
Digitaria sanguinalis; Dose 15 g/ha
  Weeding effect in post-emergence stage, Digitaria sanguinalis: 5 (Level 5: growth control rate is above 85%)
Abutilon theophrasti; Dose 15 g/ha
  Weeding effect in post-emergence stage, Abutilon theophrasti: 5 (Level 5: growth control rate is above 85%)

## COCC(O/N=C/c1cc(-n2c(=O)cc(C(F)(F)F)n(C)c2=O)c(F)cc1Cl)C(=O)OC (stereo not drawn) [Compound 333]
Echinochloa crusgalli; Dose 15 g/ha
  Weeding effect in post-emergence stage, Echinochloa crusgalli: 5 (Level 5: growth control rate is above 85%)
Eleusine indica; Dose 15 g/ha
  Weeding effect in post-emergence stage, Eleusine indica: 5 (Level 5: growth control rate is above 85%)
Setaria viridis; Dose 15 g/ha
  Weeding effect in post-emergence stage, Setaria viridis: 5 (Level 5: growth control rate is above 85%)
Alopecurus japonicus; Dose 15 g/ha
  Weeding effect in post-emergence stage, Alopecurus japonicus: 5 (Level 5: growth control rate is above 85%)
Digitaria sanguinalis; Dose 15 g/ha
  Weeding effect in post-emergence stage, Digitaria sanguinalis: 5 (Level 5: growth control rate is above 85%)
Abutilon theophrasti; Dose 15 g/ha
  Weeding effect in post-emergence stage, Abutilon theophrasti: 5 (Level 5: growth control rate is above 85%)

## COC(=O)C(O/N=C/c1cc(-n2c(=O)cc(C(F)(F)F)n(C)c2=O)c(F)cc1Cl)c1ccccc1 (stereo not drawn) [Compound 337]
Echinochloa crusgalli; Dose 15 g/ha
  Weeding effect in post-emergence stage, Echinochloa crusgalli: 5 (Level 5: growth control rate is above 85%)
Eleusine indica; Dose 15 g/ha
  Weeding effect in post-emergence stage, Eleusine indica: 5 (Level 5: growth control rate is above 85%)
Setaria viridis; Dose 15 g/ha
  Weeding effect in post-emergence stage, Setaria viridis: 5 (Level 5: growth control rate is above 85%)
Alopecurus japonicus; Dose 15 g/ha
  Weeding effect in post-emergence stage, Alopecurus japonicus: 5 (Level 5: growth control rate is above 85%)
Digitaria sanguinalis; Dose 15 g/ha
  Weeding effect in post-emergence stage, Digitaria sanguinalis: 5 (Level 5: growth control rate is above 85%)
Abutilon theophrasti; Dose 15 g/ha
  Weeding effect in post-emergence stage, Abutilon theophrasti: 5 (Level 5: growth control rate is above 85%)

## COC(=O)C(C)O/N=C/c1cc(-n2c(=O)cc(C(F)(F)F)n(C)c2=O)c(F)cc1C(F)(F)F (stereo not drawn) [Compound 342]
Echinochloa crusgalli; Dose 15 g/ha
  Weeding effect in post-emergence stage, Echinochloa crusgalli: 5 (Level 5: growth control rate is above 85%)
Eleusine indica; Dose 15 g/ha
  Weeding effect in post-emergence stage, Eleusine indica: 5 (Level 5: growth control rate is above 85%)
Setaria viridis; Dose 15 g/ha
  Weeding effect in post-emergence stage, Setaria viridis: 5 (Level 5: growth control rate is above 85%)
Alopecurus japonicus; Dose 15 g/ha
  Weeding effect in post-emergence stage, Alopecurus japonicus: 4 (Level 4: growth control rate is greater than or equal to 60% and less than 85%)
Digitaria sanguinalis; Dose 15 g/ha
  Weeding effect in post-emergence stage, Digitaria sanguinalis: 5 (Level 5: growth control rate is above 85%)
Abutilon theophrasti; Dose 15 g/ha
  Weeding effect in post-emergence stage, Abutilon theophrasti: 5 (Level 5: growth control rate is above 85%)

## COC(=O)C(C)O/N=C/c1cc(-n2c(=O)cc(C(F)(F)F)n(C)c2=O)c(F)cc1C#N (stereo not drawn) [Compound 344]
Echinochloa crusgalli; Dose 15 g/ha
  Weeding effect in post-emergence stage, Echinochloa crusgalli: 5 (Level 5: growth control rate is above 85%)
Eleusine indica; Dose 15 g/ha
  Weeding effect in post-emergence stage, Eleusine indica: 5 (Level 5: growth control rate is above 85%)
Setaria viridis; Dose 15 g/ha
  Weeding effect in post-emergence stage, Setaria viridis: 5 (Level 5: growth control rate is above 85%)
Alopecurus japonicus; Dose 15 g/ha
  Weeding effect in post-emergence stage, Alopecurus japonicus: 5 (Level 5: growth control rate is above 85%)
Digitaria sanguinalis; Dose 15 g/ha
  Weeding effect in post-emergence stage, Digitaria sanguinalis: 5 (Level 5: growth control rate is above 85%)
Abutilon theophrasti; Dose 15 g/ha
  Weeding effect in post-emergence stage, Abutilon theophrasti: 5 (Level 5: growth control rate is above 85%)

## COC(=O)C(C)O/N=C/c1cc(-n2c(=O)cc(C(F)(F)F)n(C)c2=S)c(F)cc1Cl (stereo not drawn) [Compound 347]
Echinochloa crusgalli; Dose 30 g/ha
  Weeding effect in post-emergence stage, Echinochloa crusgalli: 5 (Level 5: growth control rate is above 85%)
Eleusine indica; Dose 30 g/ha
  Weeding effect in post-emergence stage, Eleusine indica: 5 (Level 5: growth control rate is above 85%)
Setaria viridis; Dose 30 g/ha
  Weeding effect in post-emergence stage, Setaria viridis: 5 (Level 5: growth control rate is above 85%)
Alopecurus japonicus; Dose 30 g/ha
  Weeding effect in post-emergence stage, Alopecurus japonicus: 5 (Level 5: growth control rate is above 85%)
Digitaria sanguinalis; Dose 30 g/ha
  Weeding effect in post-emergence stage, Digitaria sanguinalis: 5 (Level 5: growth control rate is above 85%)
Abutilon theophrasti; Dose 30 g/ha
  Weeding effect in post-emergence stage, Abutilon theophrasti: 5 (Level 5: growth control rate is above 85%)

## CCSC(=O)C(C)O/N=C/c1cc(-n2c(=O)cc(C(F)(F)F)n(C)c2=O)c(F)cc1Cl (stereo not drawn) [Compound 398]
Echinochloa crusgalli; Dose 15 g/ha
  Weeding effect in post-emergence stage, Echinochloa crusgalli (level): 5 (Level 5: growth control rate is above 85%)
Eleusine indica; Dose 15 g/ha
  Weeding effect in post-emergence stage, Eleusine indica (level): 5 (Level 5: growth control rate is above 85%)
Setaria viridis; Dose 15 g/ha
  Weeding effect in post-emergence stage, Setaria viridis (level): 5 (Level 5: growth control rate is above 85%)
Alopecurus japonicus; Dose 15 g/ha
  Weeding effect in post-emergence stage, Alopecurus japonicus (level): 5 (Level 5: growth control rate is above 85%)
Digitaria sanguinalis; Dose 15 g/ha
  Weeding effect in post-emergence stage, Digitaria sanguinalis (level): 5 (Level 5: growth control rate is above 85%)
Abutilon theophrasti; Dose 15 g/ha
  Weeding effect in post-emergence stage, Abutilon theophrasti (level): 5 (Level 5: growth control rate is above 85%)

## CCCSC(=O)C(C)O/N=C/c1cc(-n2c(=O)cc(C(F)(F)F)n(C)c2=O)c(F)cc1Cl (stereo not drawn) [Compound 399]
Echinochloa crusgalli; Dose 15 g/ha
  Weeding effect in post-emergence stage, Echinochloa crusgalli (level): 5 (Level 5: growth control rate is above 85%)
Eleusine indica; Dose 15 g/ha
  Weeding effect in post-emergence stage, Eleusine indica (level): 5 (Level 5: growth control rate is above 85%)
Setaria viridis; Dose 15 g/ha
  Weeding effect in post-emergence stage, Setaria viridis (level): 5 (Level 5: growth control rate is above 85%)
Alopecurus japonicus; Dose 15 g/ha
  Weeding effect in post-emergence stage, Alopecurus japonicus (level): 5 (Level 5: growth control rate is above 85%)
Digitaria sanguinalis; Dose 15 g/ha
  Weeding effect in post-emergence stage, Digitaria sanguinalis (level): 5 (Level 5: growth control rate is above 85%)
Abutilon theophrasti; Dose 15 g/ha
  Weeding effect in post-emergence stage, Abutilon theophrasti (level): 5 (Level 5: growth control rate is above 85%)

## CC(C)SC(=O)C(C)O/N=C/c1cc(-n2c(=O)cc(C(F)(F)F)n(C)c2=O)c(F)cc1Cl (stereo not drawn) [Compound 400]
Echinochloa crusgalli; Dose 15 g/ha
  Weeding effect in post-emergence stage, Echinochloa crusgalli (level): 5 (Level 5: growth control rate is above 85%)
Eleusine indica; Dose 15 g/ha
  Weeding effect in post-emergence stage, Eleusine indica (level): 5 (Level 5: growth control rate is above 85%)
Setaria viridis; Dose 15 g/ha
  Weeding effect in post-emergence stage, Setaria viridis (level): 5 (Level 5: growth control rate is above 85%)
Alopecurus japonicus; Dose 15 g/ha
  Weeding effect in post-emergence stage, Alopecurus japonicus (level): 4 (Level 4: growth control rate is greater than or equal to 60% and less than 85%)
Digitaria sanguinalis; Dose 15 g/ha
  Weeding effect in post-emergence stage, Digitaria sanguinalis (level): 5 (Level 5: growth control rate is above 85%)
Abutilon theophrasti; Dose 15 g/ha
  Weeding effect in post-emergence stage, Abutilon theophrasti (level): 5 (Level 5: growth control rate is above 85%)
